Literature values as cited in patent EP2387991A1, “Vitamin E succinate stabilized pharmaceutical compositions, methods for the preparation and the use thereof” (Adventrx Pharmaceuticals, Inc., priority 2006, dated 2007).

solubility in water: practically insoluble
SMILES: CC(=O)O[C@@]12CO[C@@H]1C[C@H](O)[C@@]1(C)C(=O)[C@H](O)C3=C(C)[C@@H](OC(=O)[C@H](O)[C@@H](NC(=O)OC(C)(C)C)c4ccccc4)C[C@@](O)([C@@H](OC(=O)c4ccccc4)[C@H]21)C3(C)C [Docetaxel, (2R,3S)-N-carboxy-3-phenylisoserine, N-tert-butyl ester, 13-ester with 5β-20-epoxy-1,2α-,4,7β,10β,13α-hexahydroxytax-11-en-9-one 4-acetate 2-benzoate, trihydrate]
